These results are taken from ChEMBL document CHEMBL1123689, “Quantitative structure-activity analysis in dihydropteroate synthase inhibition by sulfones. Comparison with sulfanilamides” (J Med Chem, 1987).

The structures appear in SMILES notation. Several values for one entry are separate records, joined by “and”; a condition that tells them apart may be missing. Equal values may be shown once.

The target of data set [1] is T1, Dihydropteroate synthase (Escherichia coli K-12) (UniProt P0AC13).
T1 sequence (whole entry): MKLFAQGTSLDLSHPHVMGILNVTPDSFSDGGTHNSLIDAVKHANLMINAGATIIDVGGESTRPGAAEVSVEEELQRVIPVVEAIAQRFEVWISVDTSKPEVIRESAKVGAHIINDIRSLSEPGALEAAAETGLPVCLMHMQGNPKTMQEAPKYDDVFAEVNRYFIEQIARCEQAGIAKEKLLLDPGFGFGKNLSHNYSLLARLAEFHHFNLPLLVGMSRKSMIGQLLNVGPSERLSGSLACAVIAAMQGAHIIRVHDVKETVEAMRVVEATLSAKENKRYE
The experiment in a line: Inhibition of dihydropteroate synthase of Escherichia coli.

Another data set relates to Mycobacterium 607. The experiment in a line: Inhibition of Dihydropteroate synthase of Mycobacterium 607 and log (1/MIC) was reported.
The nature of data set [2]: pKa value was determined by spectrophotometrically at pH 8.2 (for di ionic form ). It counts as physicochemical. The following applies: read-out: pKa2.
Data set [3] in a line: pKa value by spectrophotometrically at pH 8.2 (for mono ionic form). Format: physicochemical. The following applies: read-out: pKa1.
Data set [4] is described as follows: pKa value by spectrophotometrically at pH 8.2. It counts as physicochemical.
Data set [5] is described as follows: pKa value by spectrophotometrically at pH 8.2 (for di ionic form ). It counts as physicochemical. The following applies: read-out: pKa2.

In turn, `Cc1ccc(S(=O)(=O)c2ccc(N)cc2)c(C)c1` came in with an EII50 in data set [1] of 1.89.
Same read-out and setting: for `COc1cc(OC)c(S(=O)(=O)c2ccc(N)cc2)c(OC)c1` the value was 12.9.
Molecule `Nc1ccc(S(=O)(=O)c2ccc(NO)cc2)cc1` came in with an EII50 in data set [1] of 4.53. This molecule returned a Log 1/MIC in the data set with Mycobacterium 607 of 4.46.
In data set [1], `Nc1ccc(S(=O)(=O)c2ccccc2N)cc1` displayed an EII50 of 2.27. The Log 1/MIC in the data set with Mycobacterium 607 was found to be 4.35.
As for `Nc1ccc(S(=O)(=O)c2ccc(O)cc2)cc1`, the EII50 in data set [1] is 1.5 and 2.45. In the data set with Mycobacterium 607, the Log 1/MIC is 5.96.
Turning to `Nc1ccc(S(=O)(=O)c2ccc(NC=O)cc2)cc1`, in data set [1], the EII50 worked out at 5.79. Moreover, the Log 1/MIC in the data set on Mycobacterium 607 stood at 4.74.
For `COC(=O)c1ccc(S(=O)(=O)c2ccc(N)cc2)cc1`, the EII50 in data set [1] stood at 34.
Same read-out and setting: in the case of `N#Cc1ccc(S(=O)(=O)c2ccc(N)cc2)cc1` it was 67.3.
Still for that read-out and setting: in the case of `CC(=O)c1ccc(S(=O)(=O)c2ccc(N)cc2)cc1` it was 43.4.
Consider `Nc1ccc(S(=O)(=O)c2ccc(F)cc2)cc1`, for which the EII50 in data set [1] is 18.1. In addition, in the data set with Mycobacterium 607, the Log 1/MIC stood at 3.5.
For `Nc1ccc(S(=O)(=O)c2cccc(N)c2)cc1` the same measures were 6.04 and 4.62.
On the same counts, the results for `Nc1ccc(S(=O)(=O)c2ccc(Br)cc2)cc1` are 11.1 and 3.59.
On to `Nc1ccc(S(=O)(=O)c2ccc(N)cc2)cc1`, for which, in data set [1], the EII50 was 2.64.
Turning to `COc1ccc(S(=O)(=O)c2ccc(N)cc2)cc1`, the EII50 in data set [1] was determined as 6.6. Moreover, the Log 1/MIC with Mycobacterium 607 was 4.02.
Turning to `CCN(CC)c1ccc(S(=O)(=O)c2ccc(N)cc2)cc1`, the EII50 in data set [1] was found to be 2.64.
The same measure, in the same setting: for `Nc1ccc(S(=O)(=O)c2c(Cl)cc(Cl)cc2Cl)cc1` the value was 3.31.
In data set [1], `NC(=O)c1ccc(S(=O)(=O)c2ccc(N)cc2)cc1` yielded an EII50 of 22.6.
The same measure, in the same setting: in the case of `Nc1ccc(S(=O)(=O)c2ccc(N)cc2N)cc1` it was 1.59; in that of `Cc1ccc(S(=O)(=O)c2ccc(N)cc2)cc1`, 6.04.
`Nc1ccc(S(=O)(=O)c2ccc(O)cc2O)cc1` displayed an EII50 in data set [1] of 0.71. Also, the pKa was 10.1 in data set [2] and 7.67 in data set [3].
For the molecule `Nc1ccc(S(=O)(=O)c2ccc(Cl)cc2)cc1`, the EII50 in data set [1] amounted to 20.8.
On the same count and under the same terms, in the case of `Nc1ccc(S(=O)(=O)c2ccc(Cl)cc2Cl)cc1` it was 2.24.
Same read-out and setting: in the case of `CC(=O)Nc1ccc(S(=O)(=O)c2ccc(N)cc2)cc1` it was 5.75; in that of `CCN(CC)C(=O)c1ccc(S(=O)(=O)c2ccc(N)cc2)cc1`, 49.1.
For `CN(C)c1ccc(S(=O)(=O)c2ccc(N)cc2)cc1`, in data set [1], the EII50 worked out at 3.63.
Molecule `COc1ccc(S(=O)(=O)c2ccc(N)cc2)c(OC)c1` gave an EII50 in data set [1] of 3.21.
Consider `Nc1ccc(S(=O)(=O)c2ccccc2)cc1`, for which the EII50 in data set [1] was 9.56.
In data set [1], `Nc1ccc(S(=O)(=O)c2ccc(C(=O)O)cc2)cc1` gave an EII50 of 5.09. Besides, the pKa in data set [4] is 3.6.
Take `Cc1cc(C)c(S(=O)(=O)c2ccc(N)cc2)c(C)c1`: the EII50 in data set [1] is 1.69.
Turning to `Nc1ccc(S(=O)(=O)c2c(O)cc(O)cc2O)cc1`, in data set [1], the EII50 is 1.46 and 1.91. Moreover, the pKa in data set [5] came out at 9.62; in data set [3], 7.69.
On to `Nc1ccc(S(=O)(=O)c2ccc([N+](=O)[O-])cc2)cc1`, for which, in data set [1], the EII50 was determined as 45.3. In the data set with Mycobacterium 607, the Log 1/MIC was 3.36.
In data set [1], `CCNc1ccc(S(=O)(=O)c2ccc(N)cc2)cc1` yielded an EII50 of 4.53. The molecule also yielded a Log 1/MIC in the data set with Mycobacterium 607 of 4.26.
Molecule `Nc1ccc(S(=O)(=O)c2ccc([N+](=O)[O-])cc2[N+](=O)[O-])cc1` registered an EII50 in data set [1] of 36.3.
